According to patent publication US12319913B2, “5-halouracil-modified microRNAs and their use in the treatment of cancer” (The Research Foundation for The State University of New York, priority 2018, dated 2025):
[5FU] = 5-fluorouracil (a halouracil) replacing uracil

Key:
[1] = test system: MDA-MB-231 breast cancer cells; experiment: Cell cycle analysis, MDA-MB-231 breast cancer cells; format: cell-based, human; conditions: compared to native exogenous microRNAs or NC
Description: Cell cycle analysis: Twenty-four hours after transfection, cells were harvested and resuspended at 0.5 to 1×10^6 cells/mL in modified Krishan's buffer supplemented with 0.02 mg/mL RNase H and 0.05 mg/mL propidium iodide. Stained cells were detected by flow cytometry and results were analyzed with Modfit LT™ software. The experiments for cell cycle analysis were performed at least three times.

[2] = test system: MDA-MB-231 triple negative breast cancer cells; experiment: MTT cell proliferation, MDA-MB-231, with or without oligofectamine; format: cell-based, human; conditions: for cell proliferation without delivery vehicle (no oligofectamine): MDA-MB-231, MTT assay; for cell proliferation in the presence of oligofectamine: MDA-MB-231, MTT assay for 6 days, vs miR-NC
Description: (§1) For transfections, 1×10^5 cells were plated in six-well plates and transfected with 100 nM of control non-specific miRNA (Thermo Fischer), a modified microRNA, or exogenous native microRNA after 24 hours using Oligofectamine (Thermo Fischer) following the manufacturer's protocols. For reagent free transfection, cells were plated in 6 well plates at (1×10^5) cells per well. Twenty-four hours later 100 pmol miRNA (Control, miR-15a, Mimic-1) were diluted in Optimem (Thermo Fischer) and added to the plate. Media was changed after 24 hours. Media was supplemented with 10% fetal bovine serum (Thermo Fischer). Briefly, cells were cultured in growth media (DMEM/F12 supplemented with B27, 10 ng/mL bFGF, and 20 ng/mL EGF (Life Technologies) in ultra-low attachment flasks) for up to 6 days. The spheroid cells were maintained by collection through gentle centrifugation, dissociation to single cells and replating.
Furthermore, to test whether or not the modified microRNAs of the present disclosure can be delivered directly to cells and taken up by the cancer cells without the use of transfer agents or vehicles (i.e., oligofectamine), MDA-MB-231 triple negative breast cancer cells were transfected with miR-NC (negative control), exogenous unmodified miR-200b or miR-489, 5-FU-miR-200b or modified miR-489 by using oligofectamine or without delivery vehicle. As shown in FIGS. 17A-17B and 20A, the effects of expression of the exemplary modified miRs tested on breast cancer cell proliferation were monitored by MTT assay for 6 days upon transfection or incubation.

[3] = target: T1, TS-FdUMP (Homo sapiens, UniProt P04818); experiment: Western blot of TS / TS-FdUMP in MDA-MB-231 cells; format: cell-based
T1 construct: endogenous in cells
T1 sequence (P04818 2-313 limits assumed): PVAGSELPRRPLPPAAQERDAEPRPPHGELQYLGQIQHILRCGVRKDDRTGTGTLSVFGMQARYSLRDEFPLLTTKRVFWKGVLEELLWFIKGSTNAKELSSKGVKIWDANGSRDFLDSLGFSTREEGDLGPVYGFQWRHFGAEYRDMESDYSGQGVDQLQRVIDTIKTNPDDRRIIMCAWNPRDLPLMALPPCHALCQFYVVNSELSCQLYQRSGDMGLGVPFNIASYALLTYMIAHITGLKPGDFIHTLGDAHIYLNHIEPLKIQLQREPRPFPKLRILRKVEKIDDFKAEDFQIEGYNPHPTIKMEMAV
Description: (§2) Western immunoblot analysis: Forty-eight hours after transfection, equal amounts of protein (15 μg) extracted from cells lysed in RIPA buffer with protease inhibitor (Sigma) and were separated on 10%-12% sodium dodecyl sulfate-polyacrylamide gels using standard procedures. The primary antibodies used for the analysis were rabbit anti-YAP1 monoclonal antibody (1:10000) (Cell Signaling Technologies), anti-DLCK1 (1:500) (Abcam), anti-BCL2 (1:500) (NeoMarkers), anti-MDC1 (1:500), anti-SUZ12 (1:500), anti-pChk-1 (1:500), anti beta-actin (1:500), anti-BMI-1 (1:10000) (Cell Signaling Technologies), mouse anti-human TS antibody (1:500), anti-α-tubulin (1:50000) (Santa Cruz Biotech Inc.), anti-GAPDH (1:100000) (Santa Cruz Biotech Inc.), anti-E2F3 (1:500) (Santa Cruz Biotech Inc.), Horseradish peroxidase-conjugated antibodies against mouse or rabbit (1:5000, Santa Cruz Biotech Inc.) were used as the secondary antibodies. Protein bands were visualized with autoradiography film using SuperSignal West Pico Chemiluminescent Substrate (Thermo Fischer). Western blot density was quantified using Image J software.

[4] = test system: MDC1 and SUZ12; experiment: Western blot of MDC1 and SUZ12 in triple negative breast cancer cells; format: cell-based, human
Description: as §2

[5] = test system: MDA-MB-231 breast cancer cells; experiment: Triple negative breast cancer xenograft mouse model (MDA-MB-231, tail vein); format: in vivo; conditions: intravenous, every other day for 17 days, vs negative control and native miR-489
Description: Modified miR-489 inhibits breast cancer development and progression in vivo. A triple negative breast cancer xenograft mouse model was developed by tail vein injection of MDA-MB-231 breast cancer cells and tumors were developed over time. Mice were then injected with modified miR-489 composition having the nucleotide sequence set forth in SEQ ID NO: 32, exogenous native miR-489, or negative control miRNA by intravenous injection with treatment frequency of one injection every other day for 17 days and mice were euthanized and tumors size was measured using imaging techniques.

[6] = test system: Panc-1 pancreatic cancer cells; experiment: Cell proliferation, Panc-1; format: cell-based, human; conditions: PANC-1; 50 nM, 25 nM, 12.5 nM, 6.25 nM, and 3.125 nM
Description: as §1, with “For transfections, 1×10^5 cells were plated in six-well plates and transfected with 100 nM of control non-specific miRNA (Thermo Fischer), a modified microRNA, or exogenous native microRNA after 24 hours using Oligofectamine (Thermo Fischer) following the manufacturer's protocols.” left out
(§3) Cell proliferation assay: Twenty-four hours after transfection, cells were seeded in 96-well plates at a density of 2000 cells per well. The cell proliferation assay was performed on days 1 to 5 by incubating 10 μl WST-1 (Roche Applied Science, Mannheim, Germany) in the culture medium for 1 h and reading the absorbance at 450 and 630 nm. The cell proliferation rate was calculated by subtracting the […]. Experiments for the cell proliferation assay were performed at least three times. The O.D. was calculated by subtracting the absorbance at 630 nm from that at 450 nm. Proliferation experiments were performed three times.

[7] = test system: AsPC-1 pancreatic cancer cells; experiment: Cell proliferation, AsPC-1; format: cell-based, human; conditions: APSC-1; 50 nM, 25 nM, 12.5 nM, 6.25 nM, and 3.125 nM
Description: as §1, with “For transfections, 1×10^5 cells were plated in six-well plates and transfected with 100 nM of control non-specific miRNA (Thermo Fischer), a modified microRNA, or exogenous native microRNA after 24 hours using Oligofectamine (Thermo Fischer) following the manufacturer's protocols.” left out
as §3

[8] = test system: A549 lung cancer cells; experiment: Cell proliferation, A549; format: cell-based, human; conditions: A549, compared to negative controls
Description: as §1, §3

[9] = test system: Hs766T pancreatic cancer cells; experiment: Cell proliferation, Hs766T; format: cell-based, human; conditions: compared to negative controls
Description: as §1, §3

[10] = test system: AGS stomach cancer cells; experiment: Cell proliferation, AGS; format: cell-based, human; conditions: compared to negative controls
Description: as §1, §3

[11] = test system: SKBR3 breast cancer cells; experiment: Cell proliferation, SKBR3; format: cell-based, human; conditions: SKBR3, compared to negative controls
Description: as §1, §3

[12] = test system: acute lymphocytic leukemia cell line (REH); experiment: Cell proliferation, REH; format: cell-based, human; conditions: compared to negative controls
Description: as §1, §3

[13] = test system: fibronectin; experiment: Western blot of miR-200b target in breast cancer cells; format: cell-based, human; conditions: compared to exogenous native miR-200b and negative control
Description: as §2

[14] = test system: acute lymphocytic leukemia cell line (REH); experiment: Cell proliferation, REH; format: cell-based, human; conditions: 50 nM, 25 nM, 12.5 nM, 6.25 nM, and 3.125 nM

Substance	sub G1 and G1/S ratio [1]	cell proliferation without delivery vehicle (no oligofectamine) [2]	cell proliferation in the presence of oligofectamine [2]	expression of TS protein ([3]; breast cancer cells, FIG. 21B)	MDC1 and SUZ12 protein expression without a transfection reagent ([4]; MDA-MB-231, no oligofectamine)	MDC1 and SUZ12 protein expression ([4]; triple negative breast cancer cells, western blot)	tumor size [5]	cell proliferation, dose dependence [6]	cell proliferation, dose dependence [7]	lung cancer cell proliferation [8]	pancreatic cancer cell proliferation [9]	gastric cancer cell proliferation [10]	breast cancer cell proliferation [11]	leukemia cancer cell proliferation [12]	fibronectin (miR-200b target gene) expression [13]	TS-FdUMP break down ([3]; MDA-MB-231 cell line)	leukemia cancer cell proliferation, dose dependence [14]
CGACGGCAU^FAU^FACACU^FACAGU^FG (CGACGGCAUAUACACUACAGUG; 5-fluorouracil replacing uracils, chemistry not fully specified) [modified miR-489]	significantly increase	effectively reduced cell proliferation	dramatically reduced the cell growth from day 3	reduces the expression, and thus activity of TS protein	inhibits MDC1 and SUZ12 protein expression	further reduction of SUZ12 and MDC1	drastic reduction in tumor size										
U^FAAU^FACU^FGCCU^FGGU^FAAU^FGAU^FGA (UAAUACUGCCUGGUAAUGAUGA; RNA, [5FU] at 1, 4, 7, 11, 14, 17, 20, backbone not given here) [modified miR-200b, miR-200b in which all (7) U bases are replaced by 5-fluorouracil]	significantly increase	effectively reduced cell proliferation	dramatically reduced the cell growth from day 3					inhibited in a dose dependent manner	inhibited in a dose dependent manner	inhibited	inhibited	inhibited	inhibited	inhibited	reduction of fibronectin	breaks down TS-FdUMP	inhibited in a dose dependent manner
